Consider one compound from patent US20230357307A1, “CLEAVABLE CYCLIC LOOP NUCLEOTIDES FOR NANOPORE SEQUENCING” (ILLUMINA, INC., priority 2022, published 2023).

This experiment deals with polymerase. As to the kind of experiment: polymerase incorporation of allyl dTTP (FIG. 7 gel). The experiment is classed as biochemical. The following applies: homopolymeric A template. The text has this:
A polymerase incorporated “allyl dTTP” and “ext allyl dTTP” to a template and primer combination, as indicated by the arrow in FIG. 7, for up to 10 successive incorporations. The reaction conditions as well as the definitions of “allyl dTTP” and “ext allyl dTTP” are given in the right panel of FIG. 7. Moreover, “A” and “B” are referring to the optically pure diastereomers arising from the C5′ allyl carbon center.
Lanes 1 (starting from the left), 3, 5, 7, 9 and 11 were loaded with reactions run for an hour; and Lanes 2, 4, 6, 8, 10 and 12 were loaded with reactions run for 22 hours. Lanes 1 and 2 show: controls with natural dTTP without any arresting constructs (Note, bands above +10 are seen due to the use of a homopolymeric A template, a common observation). Lanes 3 and 4 show: one isomer of Allyl dTTP (“Allyl A dTTP”) is used, the isomer arise from the C-stereogenic center (marked with “+” in the structure shown on the right panel of FIG. 7). Up to +7 incorporation observed after 1 h. […] Lanes 5 and 6 show: one isomer of ext allyl dTTP (“Ext Allyl A dTTP”) is used. Up to +7 incorporation observed after 22h. Slower incorporation possibly due to increased sterics. Lanes 7 and 8 show: the other isomer of Allyl dTTP (“Allyl B dTTP”) is used. Up to +10 incorporation observed after 22h. Lanes 9 and 10 show: the other isomer of ext allyl dTTP (“Ext Allyl B dTTP”) is used. […]

Consider `Cc1cn([C@H]2C[C@H](O)[C@@H](COP(=O)(O)OP(=O)(O)OP(=O)(O)O)O2)c(=O)[nH]c1=O` [dTTP], for which the “incorporation observed (primer +n)” value runs as follows: (reactions run for 22 hours) “above +10”; (reactions run for an hour) “above +10”.
